Laboratory results reported in ChEMBL document CHEMBL4354827, “Discovery of Novel, Potent, Brain-Permeable, and Orally Efficacious Positive Allosteric Modulator of α7 Nicotinic Acetylcholine Receptor [4-(5-(4-Chlorophenyl)-4-methyl-2-propionylthiophen-3-yl)benzenesulfonamide]: Structure-Activity Relationship and Preclinical Characterization” (J Med Chem, 2020).
Activity calls are given as the source filed them. No cut-off for these calls is given here.

Columns and labels:
[1] = Cmax in Wistar rat brain at 10 mg/kg, po after 1 to 144 hrs by LC-MS/MS analysis; assay type: ADME, organism-based; set-up: dose 10 mg/kg, route oral
[2] = Drug concentration in Wistar rat plasma at 10 mg/kg, po after 1 hr by LC-MS/MS analysis; assay type: ADME, organism-based
Cytochrome P450 2E1 = Cytochrome P450 2E1 (Homo sapiens, UniProt P05181); experiment: Inhibition of CYP2E1 (unknown origin) up to 10 uM; assay type: ADME
Chain of Cytochrome P450 2E1 (P05181 whole entry): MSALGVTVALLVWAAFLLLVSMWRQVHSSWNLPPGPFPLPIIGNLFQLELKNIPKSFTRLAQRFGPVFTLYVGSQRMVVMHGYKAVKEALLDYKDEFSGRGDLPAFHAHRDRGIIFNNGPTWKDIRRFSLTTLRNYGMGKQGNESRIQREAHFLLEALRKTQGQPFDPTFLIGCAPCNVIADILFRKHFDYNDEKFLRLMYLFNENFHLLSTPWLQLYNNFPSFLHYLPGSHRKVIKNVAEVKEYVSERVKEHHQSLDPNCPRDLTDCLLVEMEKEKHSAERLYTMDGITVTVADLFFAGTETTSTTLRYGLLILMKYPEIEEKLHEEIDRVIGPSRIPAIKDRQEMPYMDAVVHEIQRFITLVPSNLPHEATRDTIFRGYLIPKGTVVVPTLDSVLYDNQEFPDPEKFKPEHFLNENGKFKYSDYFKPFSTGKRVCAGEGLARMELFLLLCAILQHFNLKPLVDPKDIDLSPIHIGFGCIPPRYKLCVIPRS

Rattus norvegicus [3] = experiment: Memory enhancement effect in scopolamine-induced Wistar rat model of amnesia assessed as exploration time for object1 in acquisition trial at 0.5 mg/kg, po administered as single dose and measured on day 8 by novel object recognition test (reference value: 16.11 sec); assay type: functional
[4] = Drug metabolism in dog liver microsomes assessed as metabolic rate at 1 uM preincubated for 5 mins followed by NADPH addition after 30 mins by LC-MS/MS analysis; assay type: ADME, Canis lupus familiaris, Microsome; conditions: 0.5 h
Rattus norvegicus [5] = experiment: Memory enhancement effect in time-delay induced Wistar rat model of amnesia assessed as exploration time for object2 in acquisition trial at 1 mg/kg, po administered as single dose and measured on day 8 by novel object recognition test (reference value: 16.33 sec); assay type: functional
[6] = Elimination half life in human at 7.5 to 100 mg; assay type: ADME; conditions: read-out: beta t1/2
[7] = Oral bioavailability in BALB/c mouse at 10 mg/kg after 0.25 to 144 hrs by LC-MS/MS analysis; assay type: ADME, organism-based; conditions: in vivo
[8] = Drug metabolism in monkey liver microsomes assessed as metabolic rate at 1 uM preincubated for 5 mins followed by NADPH addition after 30 mins by LC-MS/MS analysis; assay type: ADME, Macaca mulatta, Microsome; conditions: rhesus monkey, 0.5 h
Rattus norvegicus [9] = experiment: Improvement in social recognition time delay-induced Sprague-Dawley rat model of amnesia assessed as increase in reduction in social investigation time at 1 mg/kg, po administered as single dose prior to 1 hr training and measured after 30 mins (reference value: 0.39%); assay type: functional; set-up: scale not given: the % may be the effect or the level left
[10] = Tmax in Beagle dog at 10 mg/kg, po after 0.25 to 144 hrs by LC-MS/MS analysis; assay type: ADME, organism-based, Canis lupus familiaris; conditions: in vivo
[11] = Drug concentration in Wistar rat brain at 10 mg/kg, po after 24 hrs by LC-MS/MS analysis; assay type: ADME, organism-based; conditions: read-out: Drug uptake
[12] = Half life in Wistar rat at 10 mg/kg, po after 0.25 to 144 hrs by LC-MS/MS analysis; assay type: ADME, organism-based; conditions: in vivo
Rattus norvegicus [13] = experiment: Improvement in social recognition scopolamine-induced Sprague-Dawley rat model of amnesia assessed as reduction in recognition index at 0.50 mg/kg, po for 7 days measured after 24 hrs (reference value: 0.93); assay type: functional
Rattus norvegicus [14] = experiment: Memory enhancement effect in scopolamine-induced Wistar rat model of amnesia assessed as exploration time for object2 in acquisition trial at 0.50 mg/kg, po for 7 days and measured on day 8 by novel object recognition test (reference value: 15.63 sec); assay type: functional
[15] = molecular target: T1, Neuronal acetylcholine receptor subunit alpha-7 (Homo sapiens, UniProt P36544); experiment: Positive allosteric modulatory activity against alpha7 nAChR in human IMR-32 cells assessed as potentiation of PNU-282987-induced Ca2+ […] at by FLIPR assay; assay type: cell-based
T1 sequence (P36544 whole entry): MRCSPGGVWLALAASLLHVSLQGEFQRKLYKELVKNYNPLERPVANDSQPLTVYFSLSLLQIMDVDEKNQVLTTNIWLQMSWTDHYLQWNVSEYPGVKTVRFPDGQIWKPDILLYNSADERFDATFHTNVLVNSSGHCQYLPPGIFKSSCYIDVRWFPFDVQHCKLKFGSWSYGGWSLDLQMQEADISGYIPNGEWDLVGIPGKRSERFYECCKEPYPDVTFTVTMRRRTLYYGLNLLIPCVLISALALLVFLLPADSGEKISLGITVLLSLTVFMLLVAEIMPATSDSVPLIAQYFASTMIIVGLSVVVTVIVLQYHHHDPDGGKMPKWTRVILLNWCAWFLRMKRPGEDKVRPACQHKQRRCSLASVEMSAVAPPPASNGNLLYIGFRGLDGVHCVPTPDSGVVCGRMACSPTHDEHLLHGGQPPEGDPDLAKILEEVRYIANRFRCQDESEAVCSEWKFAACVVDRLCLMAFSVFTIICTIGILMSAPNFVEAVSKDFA

[16] = Tmax in Wistar rat at 10 mg/kg, po after 0.25 to 144 hrs by LC-MS/MS analysis; assay type: ADME, organism-based; conditions: in vivo
[17] = Protein binding in dog plasma at 5 uM incubated for 16 hrs under shaking condition by LC/MS/MS based rapid equilibrium dialysis method; assay type: ADME, cell-free, Canis lupus familiaris; conditions: read-out: PPB (converted)
Rattus norvegicus [18] = experiment: Memory enhancement effect in time-delay induced Wistar rat model of amnesia assessed as increase in novel object discrimination index at 1 mg/kg, po administered as single dose and measured on day 9 by novel object recognition test (reference value: 0.03); assay type: functional
[19] = molecular target: T1, Neuronal acetylcholine receptor subunit alpha-7; experiment: Positive allosteric modulatory activity against alpha7 nAChR in human IMR-32 cells assessed as potentiation of PNU-282987-induced Ca2+ […] in presence of alpha-bungarotoxin/methyllycaconitine by FLIPR assay; assay type: cell-based
Rattus norvegicus [20] = experiment: Improvement in social recognition time delay-induced Sprague-Dawley rat model of amnesia assessed as reduction in recognition index at 0.05 mg/kg, po for 7 days and measured on day 9 (reference value: 1.05); assay type: functional
Cytochrome P450 2C19 = Cytochrome P450 2C19 (Homo sapiens, UniProt P33261); experiment: Inhibition of CYP2C19 (unknown origin) up to 10 uM; assay type: ADME
Chain of Cytochrome P450 2C19 (P33261 whole entry): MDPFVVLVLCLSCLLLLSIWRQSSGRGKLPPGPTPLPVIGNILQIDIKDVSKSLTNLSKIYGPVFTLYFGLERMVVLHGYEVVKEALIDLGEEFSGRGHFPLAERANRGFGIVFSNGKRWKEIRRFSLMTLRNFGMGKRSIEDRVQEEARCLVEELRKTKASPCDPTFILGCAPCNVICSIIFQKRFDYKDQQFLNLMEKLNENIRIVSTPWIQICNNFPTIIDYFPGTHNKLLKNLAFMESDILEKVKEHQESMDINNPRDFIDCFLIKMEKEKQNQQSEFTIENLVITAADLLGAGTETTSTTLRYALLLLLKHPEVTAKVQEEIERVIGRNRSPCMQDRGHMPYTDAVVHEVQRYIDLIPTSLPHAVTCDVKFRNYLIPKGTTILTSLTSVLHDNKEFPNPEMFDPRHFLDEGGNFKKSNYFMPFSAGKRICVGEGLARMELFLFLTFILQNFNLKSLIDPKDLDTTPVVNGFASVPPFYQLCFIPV

Rattus norvegicus [21] = experiment: Memory enhancement effect in scopolamine-induced Wistar rat model of amnesia assessed as exploration time for object2 in acquisition trial at 0.5 mg/kg, po administered as single dose and measured on day 8 by novel object recognition test (reference value: 15.63 sec); assay type: functional
[22] = Half life in Beagle dog at 10 mg/kg, po after 0.25 to 144 hrs by LC-MS/MS analysis; assay type: ADME, organism-based, Canis lupus familiaris; conditions: in vivo
Rattus norvegicus [23] = experiment: Improvement in social recognition scopolamine-induced Sprague-Dawley rat model of amnesia assessed as increase in reduction in social investigation time at 0.05 mg/kg, po for 7 days measured after 24 hrs (Rvb =6.59%); assay type: functional; set-up: scale not given: the % may be the effect or the level left
[24] = Metabolic stability in human pooled liver microsomes assessed as compound remaining at 1 uM preincubated for 5 mins followed by NADPH addition and measured after 30 mins by LC-MS/MS analysis; assay type: ADME, Microsome; conditions: read-out: Stability
Rattus norvegicus [25] = experiment: Memory enhancement effect in scopolamine-induced Wistar rat model of amnesia assessed as exploration time for novel object in retention trial at 0.15 mg/kg, po for 7 days and measured on day 8 by novel object recognition test (reference value: 12.09 sec); assay type: functional
[26] = Half life in human at 7.5 to 50 mg administered for 14 days; assay type: ADME; conditions: in vivo
Rattus norvegicus [27] = experiment: Memory enhancement effect in time-delay induced Wistar rat model of amnesia assessed as exploration time for familiar object at 1 mg/kg, po administered as single dose after acquisition trial by novel object recognition test (reference value: 10.6 sec); assay type: functional
[28] = Drug level in scopolamine-induced Sprague-Dawley rat plasma at 0.05 mg/kg, po for 7 days; assay type: ADME, organism-based
Rattus norvegicus [29] = experiment: Memory enhancement effect in scopolamine-induced Wistar rat model of amnesia assessed as exploration time for object1 in acquisition trial at 0.05 mg/kg, po for 7 days and measured on day 8 by novel object recognition test (reference value: 16.11 sec); assay type: functional
[30] = Half life in Beagle dog at 1 mg/kg, iv after 0.083 to 144 hrs by LC-MS/MS analysis; assay type: ADME, organism-based, Canis lupus familiaris; conditions: in vivo

CCC(=O)c1sc(-c2ccc(Cl)cc2)c(C)c1-c1ccc(S(N)(=O)=O)cc1
Cmax [1]: 9.2 µM | concentration at 1 h [2]: 0.87 µM | inhibition (INH) (Cytochrome P450 2E1): Not Active | Time (Rattus norvegicus [3]): 13.94 s | Drug metabolism [4]: 0.01 nmol/min/mg | Time (Rattus norvegicus [5]): 23.96 s | half-life [6]: 15.5 to 77 h | bioavailability [7]: 57% | Drug metabolism [8]: 0.03 nmol/min/mg | Activity (Rattus norvegicus [9]): 31.73% | Tmax [10]: 1.5 h | concentration at 24 h [11]: 6.52 µM | half-life [12]: 45 h | Activity_index (Rattus norvegicus [13]): 0.75 | Time (Rattus norvegicus [14]): 16.55 s | EC50 [15]: 0.324 µM | Tmax [16]: 5.2 h | fraction unbound at 16 h, 5 µM [17]: 0.0031 | Activity_index (Rattus norvegicus [18]): 0.44 | Activity [19]: inactive | Activity_index (Rattus norvegicus [20]): 0.81 | inhibition (INH) (Cytochrome P450 2C19): Not Active | Time (Rattus norvegicus [21]): 16.55 s | half-life [22]: 54 h | Activity (Rattus norvegicus [23]): 44.4% | remaining at 0.5 h, 1 µM [24]: 90% | Time (Rattus norvegicus [25]): 12.8 s | half-life [26]: 48 to 80.9 h | Time (Rattus norvegicus [27]): 11.94 s | concentration at 168 h [28]: 0.06 µM | Time (Rattus norvegicus [29]): 16.07 s | half-life [30]: 88 h
